Results from patent publication US11390637B2, “Salts of antiviral phosphonate analogues and process for preparation thereof” (CIPLA LIMITED, priority 2017, dated 2022).
Structures can show the parent of a compound that is named as a salt.

How the values were obtained:
[1] = Hygroscopicity (statement, no method described); type: physicochemical; settings: in words
[2] = Solubility in physiologically acceptable solvents (statement, no method described); settings: in words
[3] = In-vitro intrinsic dissolution of 200 mg pellets of API without excipients; type: physicochemical; settings: for % release of Compound (I) from the respective Salts: Table 8; for % release of Compound (I) from the respective Salts / % release of active from fumarate salt pellet: 200 mg pellet, 0.01N HCl, 37° C., paddle 75 rpm; for % release of active from fumarate salt pellet: Table 7; for dissolution profile compared to other salts: from the data of Table 8
Procedure: A tableting mixture (200 mg) comprising solely salts of (((1-(6-amino-9H-purin-9-yl)propan-2-yloxy)methyl) (phenoxy) phosphoryloxy) methyl pivalate-prepared according to any one of the examples 1 to 10 (i.e. with no excipients) was prepared and compressed to a pellet using an automatic KBR press operating at a compression pressure of 2 tones for 2 minutes.
Similarly a tableting mixture (200 mg) comprising a solely TAF (i.e. with no excipients) was prepared and compressed to a pellet using an automatic KBR press operating at a compression pressure of 2 tones for 2 minutes.
A tableting mixture (200 mg) comprising solely TDF (i.e. with no excipients) was prepared and compressed to a pellet using an automatic KBR press operating at a compression pressure of 2 tones for 2 minutes.
In-vitro dissolution studies were performed on the 200 mg pellet in a LAB INDIA DISSO 2000.
The pellet was fixed in a PFTE holder, such that only the pellet surface came into contact with the dissolution medium. The PFTE loaded holder was placed in the dissolution vessel containing 900 ml of 0.1M of HCl having […] at 37±0.5° C. Two pellets were measured for each run of the design of the experiments. Stirring was performed with a paddle rotating at 75 rpm. […]
Dissolution Media: 0.01N HCl
Bath temperature: 37.5° C.
Sample Preparation: Pellets were prepared by pressing sample with 2 ton pressure for 2 min
Note: Aliquots were analysed on HPLC.
The concentration of (((1-(6-amino-9H-purin-9-yl)propan-2-yloxy)methyl) (phenoxy) phosphoryloxy) methyl pivalate was quantified by HPLC UV method at a maximum wavelength of 300 nm under the conditions as specified below:
Standard Preparation: 25 mg standard dissolved to 25 ml with dissolution medium. 5 ml of this solution diluted to 25 ml with dissolution medium. Further 5 ml of this solution was diluted to 10 ml with diluent.
Sample Preparation: 200 mg of Sample pellets were prepared and subjected to dissolution. 10 ml of Aliquot was removed from the dissolution basket at predetermined time intervals. 5 ml of these aliquot was diluted to 10 ml with Diluent.
200 mg of input API of fumarate salt of (((1-(6-amino-9H-purin-9-yl)propan-2-yloxy)methyl) (phenoxy) phosphoryloxy) methyl pivalate used for pellet preparation.
The percentage of (((1-(6-amino-9H-purin-9-yl)propan-2-yloxy)methyl) (phenoxy) phosphoryloxy) methyl pivalate (TD), Tenofovir Alafenamide (TAF) and Tenofovir Disoproxil (TDF) released from the respective fumarate salt tablet were plotted against time as shown in FIG. 19. The intrinsic dissolution rate was derived from the slope of this curve.
To measure the intrinsic dissolution of the Salts of (((1-(6-amino-9H-purin-9-yl)propan-2-yloxy)methyl) (phenoxy) phosphoryloxy) methyl pivalate, samples were measured to compare the influence of the different parameter settings. At appropriate time intervals, an automated sample collector removes aliquots from the dissolution medium for analysis. The time interval for sampling can vary, for example, from 5 to 120 minutes, depending on the properties of the drug and dissolution medium used. Suitable dissolution equipment for these operations includes LAB INDIA DISSO 2000. Bath temperature—37.5° C.
200 mg of input API of each fumarate, oxalate, phosphate, citrate, succinate and tartrate Salts of (((1-(6-amino-9H-purin-9-yl)propan-2-yloxy)methyl) (phenoxy) phosphoryloxy) methyl pivalate used for pellet preparation.
The percentage of (((1-(6-amino-9H-purin-9-yl)propan-2-yloxy)methyl) (phenoxy) phosphoryloxy) methyl pivalate released from the respective salts tablet were plotted against time as shown in FIG. 20. The intrinsic dissolution rate was derived from the slope of this curve.

Compound	hygroscopicity [1]	solubility in physiologically acceptable solvents [2]	% release of Compound (I) from the respective Salts ([3]; 5 min) [%]	% release of Compound (I) from the respective Salts ([3]; 15 min) [%]	% release of Compound (I) from the respective Salts ([3]; 30 min) [%]	% release of Compound (I) from the respective Salts ([3]; 45 min) [%]	% release of Compound (I) from the respective Salts ([3]; 60 min) [%]	% release of Compound (I) from the respective Salts ([3]; 90 min) [%]	% release of Compound (I) from the respective Salts ([3]; 120 min) [%]	% release of Compound (I) from the respective Salts ([3]; 150 min) [%]	% release of Compound (I) from the respective Salts ([3]; 180 min) [%]	% release of Compound (I) from the respective Salts ([3]; 210 min) [%]	% release of Compound (I) from the respective Salts ([3]; 240 min) [%]	% release of active from fumarate salt pellet ([3]; 5 min) [%]	% release of active from fumarate salt pellet ([3]; 10 min) [%]	% release of active from fumarate salt pellet ([3]; 15 min) [%]	% release of active from fumarate salt pellet ([3]; 30 min) [%]	% release of active from fumarate salt pellet ([3]; 45 min) [%]	% release of active from fumarate salt pellet ([3]; 60 min) [%]	% release of active from fumarate salt pellet ([3]; 90 min) [%]	also measured
CC(Cn1cnc2c(N)ncnc21)OCP(=O)(OCOC(=O)C(C)(C)C)Oc1ccccc1.O=C(O)CC(O)(CC(=O)O)C(=O)O (stereo not shown) [Citrate, (((1-(6-amino-9H-purin-9-yl)propan-2-yloxy)methyl) (phenoxy)phosphoryloxy) methyl pivalate citric acid salt]	not hygroscopic	readily soluble	4	12	23	33	42	63	70	66	67	66	69	–	–	–	–	–	–	–	–
CC(Cn1cnc2c(N)ncnc21)OCP(=O)(OCOC(=O)C(C)(C)C)Oc1ccccc1.O=C(O)/C=C/C(=O)O (stereo not shown) [Fumarate, (((1-(6-amino-9H-purin-9-yl)propan-2-yloxy)methyl) (phenoxy)phosphoryloxy) methyl pivalate fumaric acid salt]	–	–	3	7	12	18	24	35	45	56	66	75	83	7	5	6	12	18	24	35	% release of active from fumarate salt pellet ([3]; 120 min): 45%; dissolution profile compared with TAF and TDF ([3]; in words, from the data of Table 7): slow dissolution profile than TAF and TDF
CC(Cn1cnc2c(N)ncnc21)OCP(=O)(OCOC(=O)C(C)(C)C)Oc1ccccc1.O=C(O)C(=O)O (stereo not shown) [Oxalate, (((1-(6-amino-9H-purin-9-yl)propan-2-yloxy)methyl) (phenoxy)phosphoryloxy) methyl pivalate oxalic acid salt]	not hygroscopic	readily soluble	2	4	7	10	15	23	31	40	46	53	60	–	–	–	–	–	–	–	dissolution profile compared to other salts ([3]; in words): slowest dissolution profile
CC(Cn1cnc2c(N)ncnc21)OCP(=O)(OCOC(=O)C(C)(C)C)Oc1ccccc1.O=P(O)(O)O (stereo not shown) [Phosphate, (((1-(6-amino-9H-purin-9-yl)propan-2-yloxy)methyl) (phenoxy)phosphoryloxy) methyl pivalate phosphoric acid salt]	not hygroscopic	readily soluble	19	59	103	104	105	105	106	105	104	104	105	–	–	–	–	–	–	–	dissolution profile compared to other salts ([3]; in words): fastest dissolution profile
CC(C)OC(=O)[C@H](C)N[P@](=O)(CO[C@H](C)Cn1cnc2c(N)ncnc21)Oc1ccccc1 [TAF, Tenofovir Alafenamide Fumarate, reference compound]	–	–	–	–	–	–	–	–	–	–	–	–	–	6	7	9	16	24	31	46	% release of active from fumarate salt pellet ([3]; 120 min): 60%
CC(C)OC(=O)OCOP(=O)(CO[C@H](C)Cn1cnc2c(N)ncnc21)OCOC(=O)OC(C)C [TDF, Tenofovir Disoproxil Fumarate, reference compound]	–	–	–	–	–	–	–	–	–	–	–	–	–	8	5	7	13	19	26	37	% release of active from fumarate salt pellet ([3]; 120 min): 50%
CC(Cn1cnc2c(N)ncnc21)OCP(=O)(OCOC(=O)C(C)(C)C)Oc1ccccc1.O=C(O)C(O)C(O)C(=O)O (stereo not shown) [Tartrate, (((1-(6-amino-9H-purin-9-yl)propan-2-yloxy)methyl) (phenoxy)phosphoryloxy) methyl pivalate tartaric acid salt]	–	–	2	6	12	17	24	35	47	59	70	80	88	–	–	–	–	–	–	–	–
